From the supplement of paper PMC10307832

Legend:
Experiment in all cases: relative viability (nuclei count vs DMSO), 5 days (fraction); higher = more cells survive
Fedratinib + Luminespib = compound: Cc1cnc(Nc2ccc(OCCN3CCCC3)cc2)nc1Nc1cccc(S(=O)(=O)NC(C)(C)C)c1 [Fedratinib] + CCNC(=O)c1noc(-c2cc(C(C)C)c(O)cc2O)c1-c1ccc(CN2CCOCC2)cc1 [Luminespib] (partner 0.01 µM)
Outline: (§1)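 Values are medians from duplicate plates. Each reflects relative viability, defined as the nuclei count of treated wells over that of vehicle wells. Lung cancer cell lines in 1536-well plates were pin-tool dosed one day after seeding with one drug alone or with a fixed anchor-drug dose plus five library-drug doses (not always all listed) in √10 steps, then fixed, stained and imaged at 4× after 5 days.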

Fedratinib + Dasatinib = compound: Cc1cnc(Nc2ccc(OCCN3CCCC3)cc2)nc1Nc1cccc(S(=O)(=O)NC(C)(C)C)c1 [Fedratinib] + Cc1nc(Nc2ncc(C(=O)Nc3c(C)cccc3Cl)s2)cc(N2CCN(CCO)CC2)n1 [Dasatinib] (partner 0.075 µM)
Outline: as §1

GW-2580 + Vorinostat = compound: COC1=CC=C(C=C1)COC2=C(C=C(C=C2)CC3=CN=C(N=C3N)N)OC [GW-2580] + O=C(CCCCCCC(=O)Nc1ccccc1)NO [Vorinostat] (partner 1 µM)
Outline: as §1

GW-2580 + Navitoclax = compound: COC1=CC=C(C=C1)COC2=C(C=C(C=C2)CC3=CN=C(N=C3N)N)OC [GW-2580] + CC1(C)CCC(c2ccc(Cl)cc2)=C(CN2CCN(c3ccc(C(=O)NS(=O)(=O)c4ccc(N[C@H](CCN5CCOCC5)CSc5ccccc5)c(S(=O)(=O)C(F)(F)F)c4)cc3)CC2)C1 [Navitoclax] (partner 0.5 µM)
Outline: as §1

GW-2580 + Lapatinib = compound: COC1=CC=C(C=C1)COC2=C(C=C(C=C2)CC3=CN=C(N=C3N)N)OC [GW-2580] + CS(=O)(=O)CCNCc1ccc(-c2ccc3ncnc(Nc4ccc(OCc5cccc(F)c5)c(Cl)c4)c3c2)o1 [Lapatinib] (partner 2 µM)
Outline: as §1

| Cell Line | relative viability (Fedratinib + Luminespib; first compound 0.1 µM) | relative viability (Fedratinib + Luminespib; first compound 0.3162 µM) | relative viability (Fedratinib + Luminespib; first compound 1 µM) | relative viability (Fedratinib + Dasatinib; first compound 0.1 µM) | relative viability (Fedratinib + Dasatinib; first compound 0.3162 µM) | relative viability (Fedratinib + Dasatinib; first compound 1 µM) | relative viability (GW-2580 + Vorinostat; first compound 0.08 µM) | relative viability (GW-2580 + Vorinostat; first compound 0.8 µM) | relative viability (GW-2580 + Vorinostat; first compound 2.53 µM) | relative viability (GW-2580 + Vorinostat; first compound 8 µM) | relative viability (GW-2580 + Navitoclax; first compound 0.08 µM) | relative viability (GW-2580 + Navitoclax; first compound 0.8 µM) | relative viability (GW-2580 + Navitoclax; first compound 2.53 µM) | relative viability (GW-2580 + Navitoclax; first compound 8 µM) | relative viability (GW-2580 + Lapatinib; first compound 0.08 µM) | relative viability (GW-2580 + Lapatinib; first compound 0.8 µM) | relative viability (GW-2580 + Lapatinib; first compound 2.53 µM) | relative viability (GW-2580 + Lapatinib; first compound 8 µM) |
| --- | --- | --- | --- | --- | --- | --- | --- | --- | --- | --- | --- | --- | --- | --- | --- | --- | --- | --- |
| NCI-H322M | 0.59 | 0.849 | 0.49 | 0.254 | 0.24 | 0.222 | 0.843 | 0.996 | 0.893 | 0.903 | 1.07 | 1.31 | 1.11 | 1.22 | 0.547 | 0.627 | 0.592 | 0.573 |
| NCI-H3122 | 0.0769 | 0.0986 | 0.088 | 0.747 | 0.738 | 0.816 | 1.08 | 1.06 | 1.06 | 1.13 | 1.04 | 1.06 | 1.13 | 0.892 | 1.01 | 1.02 | 0.999 | 1.04 |
| COR-L23 | 0.816 | 0.671 | 0.602 | 0.487 | 0.484 | 0.512 | 0.495 | 0.516 | 0.426 | 0.524 | 1.32 | 1.17 | 1.14 | 1.11 | 1.26 | 1.22 | 1.06 | 1.06 |
| NCI-H2087 | 0.17 | 0.18 | 0.14 | 0.803 | 0.536 | 0.648 | 0.802 | 0.807 | 0.696 | 0.715 | 0.956 | 1.16 | 0.886 | 0.88 | 1.43 | 1.18 | 1.04 | 0.991 |
| LC-2-ad | 1.01 | 1.06 | 0.917 | 0.702 | 0.636 | 0.266 | 0.728 | 0.751 | 0.76 | 0.712 | 0.544 | 0.52 | 0.357 | 0.498 | 1.14 | 0.982 | 0.992 | 0.896 |
| NCI-H1915 | 0.823 | 0.754 | 0.734 | 0.258 | 0.307 | 0.179 | 0.559 | 0.583 | 0.442 | 0.508 | 0.858 | 0.898 | 0.778 | 0.837 | 1.13 | 1.05 | 1.04 | 1.03 |
| NCI-H1793 | 0.174 | 0.163 | 0.204 | 0.4 | 0.348 | 0.362 | 0.755 | 0.88 | 0.566 | 0.718 | 0.433 | 0.266 | 0.833 | 0.415 | 0.803 | 0.74 | 0.571 | 0.459 |
| NCI-H2023 | 0.578 | 0.581 | 0.632 | 0.614 | 0.476 | 0.394 | 0.812 | 0.882 | 0.598 | 0.762 | 0.914 | 1.06 | 0.973 | 1.01 | 0.899 | 0.964 | 0.633 | 0.797 |
| COR-L 105 | 0.753 | 0.743 | 0.78 | 0.29 | 0.319 | 0.287 | 0.833 | 0.926 | 0.561 | 0.697 | 0.813 | 0.814 | 0.72 | 0.751 | 0.429 | 0.393 | 0.336 | 0.351 |
| RERF-LC-KJ | 1.13 | 1.24 | 1.17 | 0.683 | 0.768 | 0.655 | 0.663 | 0.792 | 0.629 | 0.684 | 0.871 | 1.04 | 1.13 | 0.995 | 0.895 | 0.909 | 0.736 | 0.884 |
| LXF-289 | 0.741 | 0.665 | 0.747 | 0.249 | 0.158 | 0.203 | 0.843 | 0.806 | 0.776 | 0.72 | 1.02 | 0.963 | 0.948 | 0.821 | 0.941 | 0.946 | 0.815 | 0.829 |
| PC-14 |  | 0.172 | 0.14 | 0.167 | 0.272 | 0.143 | 0.919 | 0.977 | 0.724 | 0.607 | 1.07 | 1.05 | 0.905 | 1.05 | 0.379 | 0.35 | 0.307 | 0.268 |
| NCI-H1666 | 0.92 | 0.977 | 1.01 | 0.843 | 0.675 | 0.731 | 1.08 | 1.16 | 0.94 | 0.967 | 0.946 | 1.1 | 0.856 | 0.69 | 0.601 | 0.757 | 0.847 | 0.431 |
| NCI-H2085 | 0.415 | 0.463 | 0.408 | 0.259 | 0.26 | 0.246 | 0.786 | 0.856 | 0.735 | 0.821 | 1.09 | 1.11 | 1.03 | 1.07 | 0.849 | 0.988 | 0.626 | 0.713 |
| NCI-H1734 | 0.179 | 0.205 | 0.185 | 0.455 | 0.464 | 0.4 | 0.871 | 0.802 | 0.725 | 0.775 | 1.04 | 0.935 | 0.857 | 0.76 | 1.17 | 1 | 1.01 | 1.01 |
| NCI-H2126 | 0.929 | 0.962 | 0.834 | 0.577 | 0.655 | 0.426 | 0.817 | 0.794 | 0.749 | 0.814 | 0.915 | 0.875 | 0.808 | 0.921 | 0.767 | 0.835 | 0.679 | 0.833 |
| EMC-BAC-2 | 1.27 | 1.12 | 1.18 | 0.289 | 0.362 | 0.285 | 0.418 | 0.733 |  | 0.376 | 1.18 | 1.39 | 1.07 | 1.2 | 0.909 | 0.95 | 0.84 | 0.901 |
